Drawing on ChEMBL document CHEMBL2029276, “E297G mutated bile salt export pump (BSEP) function enhancers derived from GW4064: structural development study and separation from farnesoid X receptor-agonistic activity” (Bioorg Med Chem Lett, 2012), this text covers Activity and EC50 for twelve molecules.

The target of data set [1] is T1, Bile salt export pump (Homo sapiens, UniProt O95342, E297G). The data set can be described thus: Enhancement of human BSEP E297G mutant trafficking to cell membrane in MDCK2 cells co-expressing NTCP assessed as accumulation of [3H]taurocholate at 10 uM preincubated for 24 hrs prior incubation with [3H]taurocholate measured after 2 hrs by liquid scintillation counting. Conditions: mdck-ii.

The target in another data set is T2, Bile acid receptor (Homo sapiens, UniProt Q96RI1).
T2 sequence (Q96RI1 whole entry): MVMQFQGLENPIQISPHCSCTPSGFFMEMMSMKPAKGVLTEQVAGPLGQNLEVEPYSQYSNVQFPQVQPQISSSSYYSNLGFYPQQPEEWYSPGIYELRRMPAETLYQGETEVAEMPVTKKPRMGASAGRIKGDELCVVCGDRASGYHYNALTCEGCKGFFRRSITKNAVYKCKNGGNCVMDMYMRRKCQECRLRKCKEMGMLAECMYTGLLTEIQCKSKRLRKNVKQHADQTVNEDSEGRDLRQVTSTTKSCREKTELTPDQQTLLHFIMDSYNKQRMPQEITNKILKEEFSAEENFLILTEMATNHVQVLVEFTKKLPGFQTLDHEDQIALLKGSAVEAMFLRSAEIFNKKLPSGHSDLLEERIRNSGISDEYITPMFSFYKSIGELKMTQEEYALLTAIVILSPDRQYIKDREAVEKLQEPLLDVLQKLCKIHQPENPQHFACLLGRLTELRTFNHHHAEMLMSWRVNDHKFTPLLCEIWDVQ
Briefly: Agonist activity at human recombinant FXR expressed in HEK293 cells coexpressing CMX-GAL4N by luciferase reporter gene assay. Format: functional, cell-based. A general note: Reporter assays use an easily measured gene product as a stand-in for the process of interest.

Data set [2] concerns the target T1, Bile salt export pump. Briefly: Enhancement of human BSEP E297G mutant trafficking to cell membrane in MDCK2 cells co-expressing NTCP assessed as accumulation of [3H]taurocholate at 1 uM preincubated for 24 hrs prior incubation with [3H]taurocholate measured after 2 hrs by liquid scintillation counting. Particulars: mdck-ii.

T1 sequence (O95342 whole entry E297G): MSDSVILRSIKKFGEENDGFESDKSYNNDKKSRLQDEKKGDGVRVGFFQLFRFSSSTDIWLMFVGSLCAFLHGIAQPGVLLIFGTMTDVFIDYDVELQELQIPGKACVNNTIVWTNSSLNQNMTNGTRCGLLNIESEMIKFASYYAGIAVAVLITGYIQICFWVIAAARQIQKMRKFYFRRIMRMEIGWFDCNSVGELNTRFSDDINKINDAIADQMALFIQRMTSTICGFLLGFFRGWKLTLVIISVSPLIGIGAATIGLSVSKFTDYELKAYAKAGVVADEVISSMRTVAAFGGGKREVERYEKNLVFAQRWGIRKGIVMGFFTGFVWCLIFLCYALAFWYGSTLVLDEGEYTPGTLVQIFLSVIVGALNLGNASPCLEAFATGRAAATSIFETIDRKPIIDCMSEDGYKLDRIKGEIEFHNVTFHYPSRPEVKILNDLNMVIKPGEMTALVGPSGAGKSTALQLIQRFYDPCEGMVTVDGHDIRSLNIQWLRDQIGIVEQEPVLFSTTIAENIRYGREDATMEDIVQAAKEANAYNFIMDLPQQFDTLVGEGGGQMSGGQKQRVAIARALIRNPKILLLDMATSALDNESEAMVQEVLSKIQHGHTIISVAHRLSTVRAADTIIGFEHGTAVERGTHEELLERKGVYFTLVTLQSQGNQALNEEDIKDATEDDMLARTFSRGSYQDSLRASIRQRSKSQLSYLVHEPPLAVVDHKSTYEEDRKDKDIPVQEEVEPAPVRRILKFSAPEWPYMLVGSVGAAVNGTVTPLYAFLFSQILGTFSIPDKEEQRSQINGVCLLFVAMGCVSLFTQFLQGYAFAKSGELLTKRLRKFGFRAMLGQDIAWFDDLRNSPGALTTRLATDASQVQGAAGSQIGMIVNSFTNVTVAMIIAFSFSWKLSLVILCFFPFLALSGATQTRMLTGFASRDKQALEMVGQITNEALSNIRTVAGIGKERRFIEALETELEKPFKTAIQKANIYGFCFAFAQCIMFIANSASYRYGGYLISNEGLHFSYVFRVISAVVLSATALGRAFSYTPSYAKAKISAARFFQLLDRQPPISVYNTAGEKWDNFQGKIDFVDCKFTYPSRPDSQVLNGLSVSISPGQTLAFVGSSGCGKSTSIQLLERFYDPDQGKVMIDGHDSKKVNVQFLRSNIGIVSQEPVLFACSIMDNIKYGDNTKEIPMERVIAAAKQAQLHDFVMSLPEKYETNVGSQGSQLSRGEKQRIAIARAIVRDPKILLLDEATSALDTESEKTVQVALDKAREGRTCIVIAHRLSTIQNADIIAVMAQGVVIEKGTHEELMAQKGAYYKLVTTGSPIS

As for `CC(C)c1onc(-c2c(Cl)cccc2Cl)c1COc1ccc(/C=C/c2cccc(C(=O)O)c2)c(Cl)c1`, the Activity on Bile salt export pump [1] was determined as 33%.
Regarding `CC(C)c1onc(-c2c(Cl)cccc2Cl)c1COc1ccc(NC(=O)c2cccc(C(=O)O)c2)c(Cl)c1`, on Bile salt export pump [1], the Activity was determined as 75%.
With `CCCCN(C(=O)c1ccc(OCc2c(-c3c(Cl)cccc3Cl)noc2C(C)C)cc1Cl)c1cccc(C(=O)O)c1`, the 50% effective concentration (EC50) at Bile acid receptor came to 1100 nM.
Regarding `CC(C)c1onc(-c2c(Cl)cccc2Cl)c1COc1ccc(N(Cc2ccccc2)C(=O)c2cccc(C(=O)O)c2)c(Cl)c1`, the concentration giving a half-maximal response (EC50) on Bile acid receptor was more than 10000 nM. The Activity at Bile salt export pump [1] was found to be 50%.
For `CC(C)c1onc(-c2c(Cl)cccc2Cl)c1COc1ccc(C(=O)N(Cc2ccccc2)c2ccc(C(=O)O)cc2)c(Cl)c1`, on Bile acid receptor, the EC50 is 2600 nM.
For `CC(C)c1onc(-c2c(Cl)cccc2Cl)c1COc1ccc(N(C(=O)c2cccc(C(=O)O)c2)c2cccc3ccccc23)c(Cl)c1`, the EC50 on Bile acid receptor was 410 nM. For the same molecule, the Activity on Bile salt export pump [1] turned out to be 59%.
In the case of `C[C@H](CCC(=O)O)[C@H]1CC[C@H]2[C@@H]3[C@H](O)C[C@@H]4C[C@H](O)CC[C@]4(C)[C@H]3CC[C@]12C` [CHENODIOL], at Bile salt export pump [1], the Activity worked out at 50%.
Regarding `CC(C)c1onc(-c2c(Cl)cccc2Cl)c1COc1ccc(C(=O)N(c2cccc(C(=O)O)c2)c2cccc3ccccc23)c(Cl)c1`, the EC50 on Bile acid receptor is 3000 nM.
As for `CC(C)c1onc(-c2c(Cl)cccc2Cl)c1COc1ccc(N(C)C(=O)c2cccc(C(=O)O)c2)c(Cl)c1`, on Bile salt export pump [1], the Activity turned out to be 60%.
On the same count and under the same terms, the same measure for `CC(C)c1onc(-c2c(Cl)cccc2Cl)c1COc1ccc(C(=O)N(Cc2ccccc2)c2cccc(C(=O)O)c2)c(Cl)c1`: 31%.
Consider `CCCCN(C(=O)c1cccc(C(=O)O)c1)c1ccc(OCc2c(-c3c(Cl)cccc3Cl)noc2C(C)C)cc1Cl`, for which the Activity is on record as 59% at Bile salt export pump [2] and 42% on Bile salt export pump [1].
As to `C[C@H](CCC(=O)O)[C@H]1CC[C@H]2[C@@H]3CC[C@@H]4C[C@H](O)CC[C@]4(C)[C@H]3C[C@H](O)[C@]12C` [DEOXYCHOLIC ACID], the 50% effective concentration (EC50) at Bile acid receptor came to 50000 nM.

A word on the EC50: it is the concentration needed to bring the measured effect to its halfway point.
